Experimental data as given in US20240174744A1, “METHODS OF TREATMENT USING PROTEIN BINDERS TO IRHOM2 EPITOPES” (SCIRHOM GMBH, priority 2021, published 2024).

System: PMA-induced release of TGFα from PC3 cells
Experiment: ELISA-based TGFα release assay, PMA-stimulated PC3 cells
Type: cell-based
Details: Homo sapiens, PC-3; recombinant murine antibodies 1 μg/ml; Batimastat 10 μM; PMA 25 ng/ml, 2 hours
Protocol: In the following study, ELISA-based TGFα release assays were performed to analyze the inhibitory effects of the antibodies of the present disclosure on PMA-induced release of endogenous TGFα from human PC3 prostate cancer cells.
In brief, on day 1, Nunc black MaxiSorp® 96-well plates (Thermo Fisher Scientific, USA) were coated overnight with 100 μl per well of goat anti-human TGFα capture antibody (provided as part of the DuoSet ELISA kit) at 0.4 μg/ml TBS at 4° C. On day 2, the capture antibody solution was removed and MaxiSorp® plates were blocked with 300 μl per well of TBS, 1% BSA at room temperature for 3 hours. […] Using an infinite M1000 (Tecan Group, Switzerland) microplate reader, the fluorescence of each well was collected at an excitation wavelength of 435 nm and an emission wavelength of 555 nm.

Q: How did the inhibition at 10 µM turn out when `CNC(=O)[C@H](Cc1ccccc1)NC(=O)[C@H](CC(C)C)[C@H](CSc1cccs1)C(=O)NO` [Batimastat] was run?
A: 99.1%
